Assay results taken from patent publication US9695155B2, “Herbicidal substituted pyrimidinyloxy benzene compounds” (E. I. DU PONT DE NEMOURS AND COMPANY, priority 2013, dated 2017).

Legend:
[1] = system: rice; test: Test C flooded paddy test; assay type: in vivo, Oryza sativa; conditions: Flood, scale 0 to 100 (0 no effect, 100 complete control), 13 to 15 days
In short: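 Test compounds are applied straight into paddy water held 3 cm above the soil surface, with that flood maintained for the whole test. After 13 to 15 days in the greenhouse, each species is scored visually relative to controls.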

[2] = system: surinam grass; test: Test E preemergence; assay type: in vivo, Brachiaria decumbens; conditions: for Surinam Grass plant response rating: scale 0 to 100 (0 no effect, 100 complete control); for Plant response rating, Surinam Grass: scale 0 to 100, 0 no effect, 100 complete control
Text: (§1) Seeds of plant species selected from corn (Zea mays), soybean (Glycine max), velvetleaf (Abutilon theophrasti), lambsquarters (Chenopodium album), wild poinsettia (Euphorbia heterophylla), palmer pigweed (Amaranthus palmeri), waterhemp (common waterhemp, Amaranthus rudis), surinam grass (Brachiaria decumbens), large (Lg) crabgrass (Digitaria sanguinalis), Brazilian crabgrass (Digitaria horizontalis), fall panicum (Panicum dichotomiflorum), giant foxtail (Setaria faberii), green foxtail (Setaria viridis), goosegrass (Eleusine indica), johnsongrass (Sorghum halepense), ragweed (common ragweed, Ambrosia elatior), barnyardgrass (Echinochloa crus-galli), sandbur (southern sandbur, Cenchrus echinatus), arrowleaf sida (Sida rhombifolia), Italian ryegrass (Lolium multiflorum), dayflower (Virginia (VA) dayflower, Commelina virginica), field bindweed (Convolvulus arvensis), morningglory (Ipomoea coccinea), nightshade (eastern black nightshade, Solanum ptycanthum), kochia (Kochia scoparia), yellow nutsedge (Cyperus esculentus), cocklebur (common cocklebur, Xanthium strumarium), smartweed (ladysthumb smartweed, and hairy beggarticks (Bidens pilosa), were planted into a silt loam soil and treated preemergence with test chemicals formulated in a non-phytotoxic solvent mixture which included a surfactant.
(§2) At the same time, plants from these crop and weed species and also horseweed (Canada horseweed, Conyza canadensis), waterhemp_RES1, (ALS & Triazine resistant common waterhemp, Amaranthus rudis), and waterhemp_RES2, (ALS & HPPD resistant common waterhemp, Amaranthus rudis) were planted in pots containing Redi-Earth® planting medium (Scotts Company, 14111 Scottslawn Road, Marysville, Ohio 43041) comprising spaghnum peat moss, vermiculite, wetting agent and starter nutrients were treated with postemergence applications of test chemicals formulated in the same manner. Plants ranged in height from 2 to 18 cm for postemergence treatments (1- to 4-leaf stage). Treated plants and controls were maintained in a greenhouse for 14 to 21 days, after which time all species were compared to controls and visually evaluated. Plant response ratings, summarized in Table E, are based on a scale of 0 to 100 where 0 is no effect and 100 is complete control. A dash (-) response means no test result.

[3] = system: yellow nutsedge; test: Test E preemergence; assay type: in vivo, Cyperus esculentus; conditions: for Nutsedge, Yellow plant response rating: scale 0 to 100 (0 no effect, 100 complete control); for Plant response rating, Nutsedge, Yellow: scale 0 to 100, 0 no effect, 100 complete control
Text: as §1, §2

[4] = system: kochia; test: Test E preemergence; assay type: in vivo, Kochia scoparia; conditions: for Kochia plant response rating: scale 0 to 100 (0 no effect, 100 complete control); for Plant response rating, Kochia: scale 0 to 100, 0 no effect, 100 complete control
Text: as §1, §2

[5] = system: soybean; test: Test E preemergence; assay type: in vivo, Glycine max; conditions: for Soybean plant response rating: scale 0 to 100 (0 no effect, 100 complete control); for Plant response rating, Soybean: scale 0 to 100, 0 no effect, 100 complete control
Text: as §1, §2

[6] = system: Italian ryegrass; test: Test E preemergence; assay type: in vivo, Lolium multiflorum; conditions: for Ryegrass, Italian plant response rating: scale 0 to 100 (0 no effect, 100 complete control); for Plant response rating, Ryegrass, Italian: scale 0 to 100, 0 no effect, 100 complete control
Text: as §1, §2

[7] = system: sandbur; test: Test E preemergence; assay type: in vivo, Cenchrus echinatus; conditions: for Sandbur plant response rating: scale 0 to 100 (0 no effect, 100 complete control); for Plant response rating, Sandbur: scale 0 to 100, 0 no effect, 100 complete control
Text: as §1, §2

[8] = system: giant foxtail; test: Test E preemergence; assay type: in vivo, Setaria faberii; conditions: for Foxtail, Giant plant response rating: scale 0 to 100 (0 no effect, 100 complete control); for Plant response rating, Foxtail, Giant: scale 0 to 100, 0 no effect, 100 complete control
Text: as §1, §2

[9] = system: blackgrass; test: Test A postemergence; assay type: in vivo, Alopecurus myosuroides
In short: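 Visual injury scored 0–100 (100 = complete control) against untreated controls about 10 days after treatment in a greenhouse. Test chemicals, formulated with surfactant in non-phytotoxic solvent, were sprayed on soil preemergence or on 2-10 cm, one- to two-leaf plants postemergence.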

[10] = 125 g ai/ha, 0 to 100 scale where 0 is no effect and 100 is complete control
[11] = 500 g ai/ha, 0 to 100 scale, 0 no effect, 100 complete control
[12] = 31 g ai/ha, 0 to 100 scale, 0 no effect, 100 complete control

SMILES: Clc1cnc(Oc2ccccc2-n2cc(Cl)cn2)nc1 [Compound 3]
- Plant response rating, Rice ([1]; 31 g ai/ha): 0
- Plant response rating, Rice ([1]; 62 g ai/ha): 0
- Plant response rating, Rice ([1]; 125 g ai/ha): 0
- Plant response rating, Rice ([1]; 250 g ai/ha): 0

SMILES: FC(F)(F)c1cnn(-c2ccccc2Oc2ncc(Cl)cn2)c1 [Compound 16]
- Surinam Grass plant response rating ([2]; 16 g ai/ha): 0
- Surinam Grass plant response rating ([2]; 31 g ai/ha): 0
- Surinam Grass plant response rating ([2]; 62 g ai/ha): 0
- Plant response rating, Surinam Grass ([2]; 125 g ai/ha): 30
- Plant response rating, Surinam Grass ([2]; 250 g ai/ha): 50
- Nutsedge, Yellow plant response rating ([3]; 16 g ai/ha): 0
- Nutsedge, Yellow plant response rating ([3]; 31 g ai/ha): 0
- Nutsedge, Yellow plant response rating ([3]; 62 g ai/ha): 0
- Plant response rating, Nutsedge, Yellow ([3]; 125 g ai/ha): 35
- Plant response rating, Nutsedge, Yellow ([3]; 250 g ai/ha): 35
- Kochia plant response rating ([4]; 16 g ai/ha): 0
- Kochia plant response rating ([4]; 31 g ai/ha): 0
- Kochia plant response rating ([4]; 62 g ai/ha): 65
- Plant response rating, Kochia ([4]; 125 g ai/ha): 100
- Plant response rating, Kochia ([4]; 250 g ai/ha): 100
- Soybean plant response rating ([5]; 16 g ai/ha): 0
- Soybean plant response rating ([5]; 31 g ai/ha): 60
- Soybean plant response rating ([5]; 62 g ai/ha): 60
- Plant response rating, Soybean ([5]; 125 g ai/ha): 90
- Plant response rating, Soybean ([5]; 250 g ai/ha): 95
- Ryegrass, Italian plant response rating ([6]; 16 g ai/ha): 0
- Ryegrass, Italian plant response rating ([6]; 31 g ai/ha): 0
- Ryegrass, Italian plant response rating ([6]; 62 g ai/ha): 15
- Plant response rating, Ryegrass, Italian ([6]; 125 g ai/ha): 40
- Plant response rating, Ryegrass, Italian ([6]; 250 g ai/ha): 75
- Sandbur plant response rating ([7]; 16 g ai/ha): 0
- Sandbur plant response rating ([7]; 31 g ai/ha): 20
- Sandbur plant response rating ([7]; 62 g ai/ha): 20
- Plant response rating, Sandbur ([7]; 125 g ai/ha): 70
- Plant response rating, Sandbur ([7]; 250 g ai/ha): 95
- Foxtail, Giant plant response rating ([8]; 16 g ai/ha): 15
- Foxtail, Giant plant response rating ([8]; 31 g ai/ha): 20
- Foxtail, Giant plant response rating ([8]; 62 g ai/ha): 100
- Plant response rating, Foxtail, Giant ([8]; 125 g ai/ha): 100
- Plant response rating, Foxtail, Giant ([8]; 250 g ai/ha): 100

SMILES: FC(F)(F)c1cnn(-c2ccccc2Oc2ncc(Br)cn2)c1 [Compound 18, 5-bromo-2-[2-[4-(trifluoromethyl)-1H-pyrazol-1-yl]phenoxy]pyrimidine]
- Surinam Grass plant response rating ([2]; 16 g ai/ha): 0
- Surinam Grass plant response rating ([2]; 31 g ai/ha): 0
- Surinam Grass plant response rating ([2]; 62 g ai/ha): 0
- Plant response rating, Surinam Grass ([2]; 125 g ai/ha): 0
- Plant response rating, Surinam Grass ([2]; 250 g ai/ha): 20
- Nutsedge, Yellow plant response rating ([3]; 16 g ai/ha): 0
- Nutsedge, Yellow plant response rating ([3]; 31 g ai/ha): 0
- Nutsedge, Yellow plant response rating ([3]; 62 g ai/ha): 0
- Plant response rating, Nutsedge, Yellow ([3]; 125 g ai/ha): 0
- Plant response rating, Nutsedge, Yellow ([3]; 250 g ai/ha): 10
- Kochia plant response rating ([4]; 16 g ai/ha): 0
- Kochia plant response rating ([4]; 31 g ai/ha): 0
- Kochia plant response rating ([4]; 62 g ai/ha): 80
- Plant response rating, Kochia ([4]; 125 g ai/ha): 100
- Plant response rating, Kochia ([4]; 250 g ai/ha): 100
- Soybean plant response rating ([5]; 16 g ai/ha): 0
- Soybean plant response rating ([5]; 31 g ai/ha): 0
- Soybean plant response rating ([5]; 62 g ai/ha): 60
- Plant response rating, Soybean ([5]; 125 g ai/ha): 90
- Plant response rating, Soybean ([5]; 250 g ai/ha): 90
- Ryegrass, Italian plant response rating ([6]; 16 g ai/ha): 0
- Ryegrass, Italian plant response rating ([6]; 31 g ai/ha): 0
- Ryegrass, Italian plant response rating ([6]; 62 g ai/ha): 0
- Plant response rating, Ryegrass, Italian ([6]; 125 g ai/ha): 20
- Plant response rating, Ryegrass, Italian ([6]; 250 g ai/ha): 35
- Sandbur plant response rating ([7]; 16 g ai/ha): 0
- Sandbur plant response rating ([7]; 31 g ai/ha): 0
- Sandbur plant response rating ([7]; 62 g ai/ha): 0
- Plant response rating, Sandbur ([7]; 125 g ai/ha): 5
- Plant response rating, Sandbur ([7]; 250 g ai/ha): 75
- Plant response rating, Rice ([1]; 31 g ai/ha): 0
- Plant response rating, Rice ([1]; 62 g ai/ha): 0
- Plant response rating, Rice ([1]; 125 g ai/ha): 0
- Plant response rating, Rice ([1]; 250 g ai/ha): 10
- Foxtail, Giant plant response rating ([8]; 16 g ai/ha): 0
- Foxtail, Giant plant response rating ([8]; 31 g ai/ha): 15
- Foxtail, Giant plant response rating ([8]; 62 g ai/ha): 65
- Plant response rating, Foxtail, Giant ([8]; 125 g ai/ha): 95
- Plant response rating, Foxtail, Giant ([8]; 250 g ai/ha): 98

SMILES: N#Cc1cccc(Oc2ncc(F)cn2)c1-n1cc(Br)cn1 [Compound 62]
- Plant response rating, Rice ([1]; 31 g ai/ha): 15
- Plant response rating, Rice ([1]; 62 g ai/ha): 15
- Plant response rating, Rice ([1]; 125 g ai/ha): 15
- Plant response rating, Rice ([1]; 250 g ai/ha): 25

SMILES: Clc1cnc(Oc2cccc(Br)c2-n2cc(Br)cn2)nc1 [Compound 65]
- Plant response rating, Rice ([1]; 31 g ai/ha): 0
- Plant response rating, Rice ([1]; 62 g ai/ha): 0
- Plant response rating, Rice ([1]; 125 g ai/ha): 0
- Plant response rating, Rice ([1]; 250 g ai/ha): 0

SMILES: FCc1cccc(Oc2ncc(Cl)cn2)c1-n1cc(Br)cn1 [Compound 83]
- Plant response rating, Blackgrass [9, 10]: 100
- Plant response rating, Blackgrass [9, 11]: 100

SMILES: CCOc1cn(-c2c(Br)cccc2Oc2ncc(Cl)cn2)nn1 [Compound 84]
- Plant response rating, Blackgrass [9, 10]: 80
- Plant response rating, Blackgrass [9, 11]: 100

SMILES: FCc1cccc(Oc2ncc(F)cn2)c1-n1cc(C(F)(F)F)cn1 [Compound 118]
- Plant response rating, Blackgrass [9, 12]: 60
- Plant response rating, Blackgrass [9, 10]: 90

SMILES: FCc1cccc(Oc2ncc(Br)cn2)c1-n1cc(C(F)(F)F)cn1 [Compound 120]
- Plant response rating, Blackgrass [9, 12]: 60
- Plant response rating, Blackgrass [9, 10]: 80
- Plant response rating, Rice ([1]; 31 g ai/ha): 0
- Plant response rating, Rice ([1]; 62 g ai/ha): 0
- Plant response rating, Rice ([1]; 125 g ai/ha): 15
- Plant response rating, Rice ([1]; 250 g ai/ha): 60

SMILES: Clc1cnc(Oc2cccc(Br)c2-n2cc(Br)nn2)nc1 [Compound 129]
- Blackgrass plant response rating [9, 10]: 70
- Plant response rating, Blackgrass ([9]; 500 g ai/ha, 0 to 100 scale where 0 is no effect and 100 is complete control): 90
